This passage reports IC50 and αvβ8/αvβ6 results from patent US9572801B2, “Tetrahydronaphthyridinyl propionic acid derivatives and uses thereof” (SciFluor Life Sciences, Inc., priority 2015, dated 2017).

Assay [1] addresses αvβ6 (Homo sapiens, UniProt P06756+P18564). The assay is described as follows: αv integrin binding assay, αVβ6-LAP-TGF β1 interaction (integrin coupled beads, flow cytometry). To be noted: ligand LAP-TGF β1 (LAP1) 10 nM; integrin 10 nM. How it is done:
(§1) αVβ6/αVβ8—LAP-TGF β1 Binding Assay
(§2) Integrins αVβ6/αVβ8 coupled beads are treated with an αVβ6/αVβ8 ligand (e.g., LAP TGF-β1 (LAP1)), and the complex is incubated with a primary antibody (Ab), which can be labeled for detection (e.g., fluorescently labeled), and optionally with a secondary antibody, which can be labeled for detection (e.g., fluorescently labeled). Reaction between integrin coupled beads and the ligand was considered as the full reaction, and reaction without the ligand or a compound of the disclosure was considered as the blank reaction. The complex is analyzed, e.g., by either plate reader or Flow Cytometer, to determine modulation of binding between αVβ6/αVβ8 and the ligand (e.g., LAP-TGF Pβ1) by the compounds of the present application. […]
(§3) The integrin coupled Dyna beads were allowed to interact with respective ligands. The integrin-ligand complex was detected with either Primary/Secondary Antibody conjugated with Fluorescein Isothiocyanate (FITC). […] Fluorescence was measured by Flow Cytometry analysis.
(§4) αVβ6/αVβ8—LAP-TGF β1 interaction: αVβ6/αVβ8 coupled beads were treated with the ligand LAP TGF-β1 (LAP1) at room temperature for 3 hours. […] The complex was analyzed by either plate reader or Flow Cytometer. […]
(§5) Quantification: The samples were acquired using a BD FACSCalibur system and analyzed with BD Cell quest pro Version 6. […]

The target in assay [2] is αvβ8 (Homo sapiens, UniProt P06756+P26012). The assay is described as follows: αv integrin binding assay, αVβ8-LAP-TGF β1 interaction (integrin coupled beads, flow cytometry). Here is the method: as §1, §2, §3, §4, §5
Chain of αvβ8 (P06756 31-992 limits assumed): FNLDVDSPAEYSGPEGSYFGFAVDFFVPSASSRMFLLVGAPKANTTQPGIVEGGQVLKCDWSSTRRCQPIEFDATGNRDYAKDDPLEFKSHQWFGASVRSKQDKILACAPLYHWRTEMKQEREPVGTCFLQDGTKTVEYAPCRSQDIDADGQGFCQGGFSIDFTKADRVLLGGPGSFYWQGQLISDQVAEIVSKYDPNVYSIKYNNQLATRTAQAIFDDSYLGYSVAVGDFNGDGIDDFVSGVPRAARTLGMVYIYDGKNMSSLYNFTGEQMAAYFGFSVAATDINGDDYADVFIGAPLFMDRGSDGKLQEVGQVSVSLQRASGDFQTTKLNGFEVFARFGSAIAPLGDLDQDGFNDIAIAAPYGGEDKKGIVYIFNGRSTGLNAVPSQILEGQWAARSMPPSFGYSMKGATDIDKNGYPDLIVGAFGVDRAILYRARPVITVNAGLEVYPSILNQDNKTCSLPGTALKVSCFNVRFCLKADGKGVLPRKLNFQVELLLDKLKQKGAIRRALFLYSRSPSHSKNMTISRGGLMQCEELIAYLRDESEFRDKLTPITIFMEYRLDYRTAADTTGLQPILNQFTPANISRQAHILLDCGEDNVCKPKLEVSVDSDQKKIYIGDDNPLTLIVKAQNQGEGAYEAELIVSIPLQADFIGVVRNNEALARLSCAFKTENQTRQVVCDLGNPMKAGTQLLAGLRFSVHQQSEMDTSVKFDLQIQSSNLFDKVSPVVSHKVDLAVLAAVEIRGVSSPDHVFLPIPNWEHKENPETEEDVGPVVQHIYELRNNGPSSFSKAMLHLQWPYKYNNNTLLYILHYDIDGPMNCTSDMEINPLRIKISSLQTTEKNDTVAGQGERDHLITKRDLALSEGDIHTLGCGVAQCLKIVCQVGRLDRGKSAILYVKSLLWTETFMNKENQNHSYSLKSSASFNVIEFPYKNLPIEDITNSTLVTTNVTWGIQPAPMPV
Chain of αvβ8 (P26012 43-684 limits assumed): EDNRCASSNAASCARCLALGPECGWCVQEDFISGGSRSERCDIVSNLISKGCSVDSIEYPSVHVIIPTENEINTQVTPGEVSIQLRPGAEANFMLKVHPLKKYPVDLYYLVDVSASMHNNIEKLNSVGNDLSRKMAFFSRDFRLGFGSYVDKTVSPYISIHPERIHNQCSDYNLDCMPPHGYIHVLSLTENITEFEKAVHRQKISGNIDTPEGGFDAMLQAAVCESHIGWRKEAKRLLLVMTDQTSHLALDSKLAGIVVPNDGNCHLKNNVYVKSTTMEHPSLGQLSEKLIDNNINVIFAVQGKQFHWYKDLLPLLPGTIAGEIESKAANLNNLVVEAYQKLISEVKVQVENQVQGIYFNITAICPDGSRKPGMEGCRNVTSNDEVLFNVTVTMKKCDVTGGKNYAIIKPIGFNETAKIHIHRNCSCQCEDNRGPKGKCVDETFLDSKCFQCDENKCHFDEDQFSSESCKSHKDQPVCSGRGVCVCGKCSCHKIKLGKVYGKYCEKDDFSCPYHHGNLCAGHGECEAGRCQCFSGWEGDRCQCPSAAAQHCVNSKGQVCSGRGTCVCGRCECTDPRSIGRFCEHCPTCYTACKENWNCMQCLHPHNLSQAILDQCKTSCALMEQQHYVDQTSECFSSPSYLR
A general note: In flow cytometry, cells or beads pass a laser one at a time.

Each structure is given as a SMILES string.

Chain of αvβ6 (P06756 31-992 limits assumed): as the sequence (P06756 31-992 limits assumed) above
Chain of αvβ6 (P18564 22-707 limits assumed): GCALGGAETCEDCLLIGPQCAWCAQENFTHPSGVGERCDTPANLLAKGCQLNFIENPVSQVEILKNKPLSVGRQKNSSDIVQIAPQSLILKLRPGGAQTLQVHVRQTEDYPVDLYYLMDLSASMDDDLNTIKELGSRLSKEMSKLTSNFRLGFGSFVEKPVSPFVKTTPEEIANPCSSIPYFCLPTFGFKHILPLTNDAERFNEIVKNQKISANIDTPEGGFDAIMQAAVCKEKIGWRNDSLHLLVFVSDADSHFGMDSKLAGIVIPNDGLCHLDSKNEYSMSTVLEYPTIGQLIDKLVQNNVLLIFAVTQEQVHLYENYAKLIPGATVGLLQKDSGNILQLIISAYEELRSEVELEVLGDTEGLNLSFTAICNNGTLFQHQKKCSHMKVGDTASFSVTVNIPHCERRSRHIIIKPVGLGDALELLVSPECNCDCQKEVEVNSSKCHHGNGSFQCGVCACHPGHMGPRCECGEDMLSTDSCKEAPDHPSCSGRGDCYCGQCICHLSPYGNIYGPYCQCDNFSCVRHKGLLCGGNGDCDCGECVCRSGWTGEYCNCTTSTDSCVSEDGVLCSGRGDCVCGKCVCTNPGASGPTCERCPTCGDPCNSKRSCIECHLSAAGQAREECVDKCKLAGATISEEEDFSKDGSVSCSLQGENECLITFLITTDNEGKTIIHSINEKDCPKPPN

Broadly, the IC50 is the concentration that gives 50% inhibition. Read a high IC50 as lower potency. For the compound `COc1ccc([C@H](CC(=O)O)N2CCN(CCCc3ccc4c(n3)NCCC4)C2=O)cn1` [A1, (S)-3-(6-methoxypyridin-3-yl)-3-(2-oxo-3-(3-(5,6,7,8-tetrahydro-1,8-naphthyridin-2-yl)propyl)imidazolidin-1-yl)propanoic acid], the IC50 in assay [1] came to 9.57 nM; in assay [2] (ligand LAP-TGF β1 (LAP1) 20 nM, integrin 10 nM), 17.6 nM. Moreover, the αvβ8/αvβ6 in assay [2] (ratio of αvβ8 IC50 to αvβ6 IC50) is on record as 1.83.
